From PMC11436758, “Computer-aided drug design to generate a unique antibiotic family” (Nature Communications, 2024) come the findings set out here.

What all share (assay type): cell-based
In one data set the test system is P. aeruginosa ATCC 27853. Briefly: MIC alone and MIC of colistin in combination with DNM compounds. The conditions noted are these: compound alone, bracket after colistin value is a range (0.25-4). Here is the method:
(§1) The medium employed for the assay was Mueller Hinton II Broth (MHB II; Becton-Dickinson, Sparks, MD, USA). Agar plates used for the organisms were trypticase soy agar plus 5% sheep blood (BD; Sparks, MD, USA). MIC assay plates were prepared using the CLSI broth microdilution procedure. Automated liquid handlers (Multidrop 384, Biomek 2000 and Biomek FX) were used to conduct serial dilutions and liquid transfers. A standardized inoculum of each organism was prepared per CLSI methods. Suspensions were prepared to equal a 0.5 McFarland standard, followed by a 1:20 dilution in test media. The inocula were dispensed into sterile reservoirs divided by length (Beckman Colter) and the Biomek 2000 was used to inoculate the plates. Daughter plates were placed on the Biomek 2000 work surface in reverse orientation so that inoculation took place from low to high drug concentration. The Biomek 2000 delivered 10 μL of the diluted suspension into each well. These inoculations yielded a final cell concentration in the daughter plates of ~5 × 10^5 colony-forming units/mL in each well. The wells of the daughter plates ultimately contained 185 μL of broth, 5 μL of drug solution, and 10 μL of bacterial inoculum. Plates were covered with a sterile lid on the top plate, placed in plastic bags, and incubated at 35 °C for ~18 h. The microplates were viewed from the bottom using a plate viewer and the MIC was read. The MIC was recorded as the lowest concentration of drug that inhibited visible growth of the organism. Uninoculated solubility control plates were also observed for evidence of drug precipitation.
(§2) Compound K. pneumoniae A. baumannii E. coli P. aeruginosa […]
(§3) Supplementary Table 3. Minimum inhibitory concentration (MIC; µg/ml) of DNM
(§4) compounds that show potential synergy in combination with colistin. […]

For a further data set, the system named is K. pneumoniae MMX8390. Described as above. The conditions noted are these: compound alone. Here is the method: as §1, §2, §3, §4
Another data set relates to E. coli ATCC 25922. The description is as above. The conditions noted are these: compound alone, bracket after colistin value is a range (0.25-2). As to the method:
as §1, §2, §3, §4

A further data set deals with A. baumannii ATCC 19606. The description is as above. Conditions: compound alone. As to the method: as §1, §2, §3, §4
The test system of a further data set is HEK293 cells. Nature of the data set: in vitro. Here is the method:
(§5) Stock solutions of the test agents were prepared in DMSO (40 mg/mL) and stored at −20 °C until use. AlamarBlue HS™ cell viability reagent was acquired from Invitrogen (Cat # A50100, Carlsbad, CA). COS7 and HEK293 cells (obtained from ATCC) were cultured and tested at 37 °C in a 5% CO2/100% humidity environment in DMEM media supplemented with 10% fetal bovine serum. Cells were trypsinized, centrifuged, resuspended in cell media, counted on a hemacytometer, and diluted to an appropriate cell density to give the desired number of cells per 300 μl media. Cells were then loaded into 48-well cell culture plates (3548; Corning, Inc.); 300 μl/well at 60,000 cells per well. The cell density was determined in preliminary tests to give linear AlamarBlue HS™ readings over a 3.5 h period for HEK293 cells and 2 h period for COS7 cells after 2 days of growth; 2 wells per plate were loaded with 300 μl/well of cell-free media to provide background readings. Plates were cultured overnight, after which test agent solutions were prepared in media at the highest test concentration (100 ug/mL) and at five serial dilutions, each containing 0.25% DMSO and 0.125% Kolliphor® EL (Cat# 27963, Sigma Aldrich). The compounds concentrations were then loaded in separate columns via 300 μl/well. […] Normalized values representing the amount of AlamarBlue converted to its […] form were calculated for each well using background-corrected absorbances as described by the Alamar-Blue HS protocol information packet available from Invitrogen Technical Support. The fraction of control viability for each agent concentration with each cell line was then determined by the ratio of normalized values for the treated wells to the control wells. […] Values were determined by linear interpolation of fraction of control growth against concentration for the test agent concentrations.

The test system of the next data set is COS7 cells. Nature of the data set: in vitro. The conditions noted are these: COS7 cells. Here is the method: as §5
The test system of another data set is K. pneumoniae. Briefly: FIC checkerboard testing with colistin (FICI). Conditions: in combination with colistin. As to the method:
For FIC testing, test ranges were set based on broth microdilution MIC test data. The wells of a standard 96-well microdilution plate (Costar) were filled with 150 μL of water in columns 2 through 12. A 300 μL aliquot of colistin at 40X the highest final concentration to be tested was added to each well in Column 1 of the plate. The Biomek 2000 was used to make eleven 2-fold serial dilutions in the “combination agent parental” plate from columns 2 through 11. The wells of the “test-agent parental” plate were filled with 150 μL of DMSO in rows B through H. Row A of this plate was filled with 300 μL of the DNM compound stock solution at 40X the highest final concentration to be tested. Serial 2-fold dilutions were then prepared from row B-G by hand using a multichannel pipette. The “daughter plates” were loaded with 180 μL of CAMHB using the Multidrop 384. The Biomek FX was used to transfer 5 μL of colistin from each well of the comparator parental plate to the corresponding well in all the daughter plates in a single step. Then a 5 μL aliquot from each well of the test agent parental plate was transferred by hand into the corresponding well of the daughter plate. Row H and Column 12 each contained serial dilutions of test agent and the combination agent alone, respectively, for determination of the MIC. This procedure was repeated for all test agents evaluated in combination with comparators. A standardized inoculum of each organism was prepared per CLSI methods. Colonies were picked from the primary plate and a suspension was prepared to equal a 0.5 McFarland turbidity standard. The suspensions were additionally diluted 1:20 in broth. A 10 μL standardized inoculum was delivered into each well using the Biomek 2000 from low to high concentration. These inoculations yielded a final cell concentration in the daughter plates of […]. Thus, the wells of the daughter plates ultimately contained […], 5 μL of test agent, 5 μL of the colistin, and 10 μL of inoculum. […] Plates were covered with a lid on the top plate, placed in plastic bags, and incubated at 35 °C for ~18 h. Plates were viewed from the bottom using a plate viewer. Prepared reading sheets were marked for the MIC of the combination agent, the MIC of test agent, and the wells of the growth-no growth interface for wells containing test agent and combination agent at varying ratios. […] For each relevant row of the panel, the FIC index (FICI) and mean FICI was calculated by: FICdrug A/MICdrug A + FICdrug B/MICdrug B = FIC index (FICI). The mean FICI for the combination was interpreted as follows: <0.5 = synergy, >0.5–4 = additive/indifferent, and >4 = antagonism. Microbiological measurements were performed and evaluated with Micromyx LLC (Kalamazoo, MI, USA).

In brackets after ≈: the same amount, converted by molar mass.

With `CC(C)c1cc(Cl)ccc1-c1cc(C(N)=O)sc1-c1ccc(Cl)cc1C(C)C` [DNM0650], the MIC with P. aeruginosa ATCC 27853, in the data set with K. pneumoniae MMX8390, in the data set on E. coli ATCC 25922 and with A. baumannii ATCC 19606 was more than 64 µg/mL throughout.
Turning to `Cc1cc(Cl)ccc1-c1cc(C(N)=O)sc1-c1ccc(Cl)cc1C` [DNM0652], the LC50 in the data set with HEK293 cells (HEK293 cells, 24 h) was determined as 35 µg/mL (≈ 93 µM); with COS7 cells (24 h), 37 µg/mL (≈ 98.3 µM). Further, the “IC50 (cell viability)” value stood at 35.256 µg/mL (≈ 93.7 µM) in the data set with HEK293 cells (Hek293 cells, 24 hrs) and 37.434 µg/mL (≈ 99.5 µM) with COS7 cells (24 hrs). Besides, in the data set with HEK293 cells (Hek293 cells, 24 hrs), the “Log IC50 (cell viability)” value was 4.547. For the same compound, the MIC in the data set on P. aeruginosa ATCC 27853, with K. pneumoniae MMX8390, in the data set with E. coli ATCC 25922 and with A. baumannii ATCC 19606 was more than 64 µg/mL in each case. The “Mean FICI” value in the data set with K. pneumoniae (K. pneumoniae (ATCC 13883)) was determined as 0.19; in the data set with K. pneumoniae (K. pneumoniae (FDA-CDC AR-BANK0040)) it was 0.41; in the data set with K. pneumoniae (K. pneumoniae (FDA-CDC AR-BANK0046)), 0.4; in the data set on K. pneumoniae (K. pneumoniae (FDA-CDC AR-BANK0047)), 0.3; in the data set with K. pneumoniae (K. pneumoniae (FDA-CDC AR-BANK0087)) it was 0.38; with K. pneumoniae (K. pneumoniae (FDA-CDC AR-BANK0097)), 0.34. Besides, the “Mean FICI” value in the data set on K. pneumoniae (K. pneumoniae (FDA-CDC AR-BANK0106)) was 0.32; in the data set on K. pneumoniae (K. pneumoniae (FDA-CDC AR-BANK0109)) it was 0.35; in the data set on K. pneumoniae (K. pneumoniae (FDA-CDC AR-BANK0125)) it was 0.32; in the data set on K. pneumoniae (K. pneumoniae (FDA-CDC AR-BANK0364)), 0.29; in the data set on K. pneumoniae (K. pneumoniae (FDA-CDC AR-BANK0454)), 0.28. Further, the “interpretation of mean FICI” value in the data set on K. pneumoniae (each strain of the Klebsiella panel) was “Synergy”.
With `Cc1cc(Cl)ccc1-c1cc(S(N)(=O)=O)sc1-c1ccc(Cl)cc1C` [DNM0658], the MIC in the data set on P. aeruginosa ATCC 27853, with K. pneumoniae MMX8390, in the data set on E. coli ATCC 25922 and in the data set on A. baumannii ATCC 19606 was more than 64 µg/mL in each case.
As to colistin [reference compound], the minimum inhibitory concentration (MIC) came to 0.25 µg/mL in the data set with P. aeruginosa ATCC 27853, 16 µg/mL in the data set with K. pneumoniae MMX8390, 0.25 µg/mL in the data set with E. coli ATCC 25922 and 0.25 µg/mL in the data set with A. baumannii ATCC 19606.
